The values below come from US20110294992A1, “METAL RESPONSIVE MRI-AGENTS” (The Regents of the University of California, priority 2010, published 2011).

Holding throughout (type): physicochemical
A short description of data set [1]: Longitudinal relaxivity (r1) from T1 measurements at 60 MHz, absence of copper. Conditions: no copper; 60 MHz, 20 mM HEPES buffer, pH 7, 37° C., 0.2 mM Gd^3+. As to the method:
The longitudinal relaxivity values for the CG contrast agents in the absence or presence of copper ions were determined using T1 measurements at 60 MHz. Studies were performed at 37° C. in 20 mM HEPES buffered to pH 7, and solutions of the purified CG sensors for relaxivity experiments contained 0.2 mM Gd^3+ as determined by ICP-OES. Spectroscopic data are collected in Table 1.
Nuclear magnetic relaxation dispersion (NMRD) experiments provide supporting evidence for this proposal (vide infra).

Data set [2] is described as follows: Electrochemical Cu2+/Cu+ reduction potentials of copper-bound CG complexes. As to conditions: PBS buffer, pH 7.4. As to the method:
CG6 is a unique member of the CG family that is equally responsive to both Cu^+ and Cu^2+. Addition of either Cu^+ or Cu^2+ to CG6 triggers a maximum 73% relaxivity turn-on from r1=2.2 mM^−1s^−1 to r1=3.8 mM^−1s^−1. […] On the other hand, copper-bound CG6, which responds to both Cu^+ and Cu^2+, has the least positive Cu^2+/Cu^+ reduction potential at +0.13 V.

Data set [3] can be described thus: Metal ion selectivity of relaxivity response (competing metal ions alone or with added copper). Conditions: relaxivity at 60 MHz, 20 mM HEPES, pH 7, 37° C. How it is done:
FIG. 6. Relaxivity responses of CG2 to various metal ions. White bars represent the addition of an excess of the appropriate metal ion (10 mM for Na^+, 2 mM for K^+, Mg^2+, and Ca^2+, and 0.2 mM for Fe^2+, Fe^3+, Cu^2+) to a 0.2 mM solution of CG2. Response to Zn^2+ was measured both at 0.2 mM Zn^2+ (Zn^2+1×) and 2 mM Zn^2+ (Zn^2+10×). Black bars represent the subsequent addition of 0.2 mM Cu^+ to the CG2 solution. Relaxivity measurements were acquired at 37° C. in 20 mM HEPES buffer, pH 7, at a proton Larmor frequency of 60 MHz.
The potential ability of this new family of CG sensors to sense bioavailable copper pools in either or both its predominant oxidation states represents a significant advance over the initial CG1 compound.

Data set [4] can be described thus: Kinetic stability to metal ion exchange monitored by LC/MS. Conditions: 1 equiv of Cu^2+.

Regarding `CCSCCN(CCSCC)Cc1cccc(CN2CCN(CC(=O)[O-])CCN(CC(=O)[O-])CCN(CC(=O)[O-])CC2)n1.[Gd+3]` [CG2], the “r1 (no Cu)” value in data set [1] is 1.5 mM⁻¹ s⁻¹. In addition, in data set [2], the “Cu^2+/+ E1/2” value is given as 0.46 V vs. SHE. For the same molecule, the “redox specificity of relaxivity response (Cu^+ vs Cu^2+)” value in data set [3] was “give turn-on relaxivity increases with Cu^+ but do not respond to Cu^2+”. Besides, the “metal ion exchange (kinetic stability)” value is on record as “No metal ion exchange was observed” in data set [4] (37° C., after 4 hours) and “No metal ion exchange was observed” in data set [4] (room temperature, after 7 days).
